# Measured values from patent USRE48461E1, “Modulation of androgen receptor expression” (Ionis Pharmaceuticals, Inc., priority 2012, dated 2021).
# Oligonucleotides are written 5' to 3', each unit as a sugar letter and its base; * is a phosphorothioate linkage, no mark a phosphodiester; rarer units and linkages stand in square brackets, end groups in braces. Plain capitals give the bases only. e = 2'-O-(2-methoxyethyl) (MOE); k = constrained ethyl (cEt); [5mC] = 5-methylcytosine; d = 2'-deoxy (DNA)
# Assays:
# AR mRNA [1] = assay: Antisense inhibition of human AR in HuVEC cells, single concentration (electroporation, qRT-PCR RTS3559); type: cell-based
# In short: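 AR mRNA levels were measured with human primer-probe set RTS3559 and adjusted for total RNA (RIBOGREEN). Cells were HuVEC, with each antisense oligonucleotide delivered by electroporation at one concentration.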
# [2] = test system: prostate-specific antigen (PSA) mRNA; assay: PSA mRNA levels in LMR20 cells; type: cell-based, human; settings: LMR20 cells; for PSA mRNA levels (% baseline value) after treatment with DHT: DHT 10 nM 72 hrs; for PSA mRNA levels (% baseline value) after treatment with R1881: R1881 10 nM 72 hrs; for PSA mRNA levels (% baseline value) of cells without AR agonist treatment: no AR agonist
# Experimental: LMR20 cells were plated at 1,500 cells per well in phenol red-free medium with CSS. […] Results are presented in Tables 43-45 as mRNA levels expressed as a percentage of the baseline values. mRNA levels may be lowered or increased after treatment.
# AR mRNA [3] = assay: AR mRNA in LnCaP cells by free uptake (hAR_LTS00943); type: cell-based, human; settings: 24 hrs
# Experimental: Cells were plated at a concentration of 4,000 cells/well in 96-well plates. ISIS oligonucleotides, specified in Table 68, were added individually at 0.02 μM, 0.10 μM, 0.50 μM, 2.50 μM, or 10.00 μM. After an incubation period of 24 hrs, mRNA levels were measured using primer probe set hAR_LTS00943.
# TMPRSS2 mRNA = TMPRSS2 mRNA levels in LMR20 cells; type: cell-based, human; settings: LMR20 cells; for TMPRSS2 mRNA levels (% baseline value) after treatment with DHT: DHT 10 nM 72 hrs; for TMPRSS2 mRNA levels (% baseline value) after treatment with R1881: R1881 10 nM 72 hrs; for TMPRSS2 mRNA levels (% baseline value) of cells without AR agonist treatment: no AR agonist
# Experimental: (§1) LMR20 cells were plated at 1,500 cells per well in phenol red-free medium with CSS.
# AR mRNA [4] = assay: AR mRNA levels in LMR20 cells (with/without DHT or R1881); type: cell-based, human; settings: LMR20 cells; for AR mRNA levels (% baseline value) after treatment with DHT: DHT 10 nM 72 hrs; for AR mRNA levels (% baseline value) after treatment with R1881: R1881 10 nM 72 hrs; for AR mRNA levels (% baseline value) of cells without AR agonist treatment: no AR agonist
# Experimental: as §1
# AR mRNA [5] = assay: Dose-dependent antisense inhibition of human AR in HuVEC cells (electroporation, qRT-PCR RTS3559, IC50); type: cell-based; settings: HuVEC
# In short: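 HuVEC cells dosed with antisense oligonucleotides by electroporation and treated approximately 16 hours. AR mRNA quantified by real-time qPCR with primer probe set RTS3559 and normalised to total RNA by RIBOGREEN; IC50 from dose-response.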
# AR mRNA [6] = assay: AR mRNA in liver, heart, skeletal muscle, kidney, prostate of cynomolgus monkeys; type: in vivo; settings: cynomolgus monkey, 40 mg/kg subcutaneously; for Percent Inhibition of AR mRNA relative to the PBS control, Heart: weeks 1 to 6, Heart; for Percent Inhibition of AR mRNA relative to the PBS control, Kidney: weeks 1 to 6, Kidney; for Percent Inhibition of AR mRNA relative to the PBS control, Liver: weeks 1 to 6, Liver; for Percent Inhibition of AR mRNA relative to the PBS control, Prostate: weeks 1 to 6, Prostate; for Percent Inhibition of AR mRNA relative to the PBS control, Skeletal Muscle: weeks 1 to 6, Skeletal Muscle
# Experimental: Cynomolgus monkeys were treated with ISIS antisense oligonucleotides selected from studies described above. Antisense oligonucleotide efficacy and tolerability were evaluated. The human antisense oligonucleotides tested are cross-reactive with the rhesus genomic sequence (GENBANK Accession No. NW_001218131.1 truncated from nucleotides 134001 to 308000 and designated herein as SEQ ID NO: 189). The target start site and target region of each oligonucleotide to SEQ ID NO: 189, as well as the details of their chemistry and sequence, is presented in Table 133.
# RNA was extracted from liver, heart, skeletal muscle, kidney, and prostate tissues for real-time PCR analysis of AR using primer probe set RTS3559. The results were normalized to RIBOGREEN®. Results are presented as percent inhibition of AR mRNA, relative to PBS control.
substance,measurement,setting,value
560131 (antisense kT*kT*kG*dA*dT*dT*dT*dA*dA*dT*dG*dG*kT*kT*kG*e[5mC]) [compound 560131],% inhibition,"AR mRNA [1]; 250 nM ASO, ~24 h, Table 7",74%
same,PSA mRNA levels (% baseline value) after treatment with DHT,[2]; ASO 0.04 μM,74 % baseline value
same,PSA mRNA levels (% baseline value) after treatment with DHT,[2]; ASO 0.20 μM,61 % baseline value
same,PSA mRNA levels (% baseline value) after treatment with DHT,[2]; ASO 1.0 μM,35 % baseline value
same,PSA mRNA levels (% baseline value) after treatment with DHT,[2]; ASO 5.0 μM,35 % baseline value
same,PSA mRNA levels (% baseline value) after treatment with R1881,[2]; ASO 0.04 μM,92 % baseline value
same,PSA mRNA levels (% baseline value) after treatment with R1881,[2]; ASO 0.20 μM,77 % baseline value
same,PSA mRNA levels (% baseline value) after treatment with R1881,[2]; ASO 1.0 μM,44 % baseline value
same,PSA mRNA levels (% baseline value) after treatment with R1881,[2]; ASO 5.0 μM,35 % baseline value
same,PSA mRNA levels (% baseline value) of cells without AR agonist treatment,[2]; ASO 0.04 μM,113 % baseline value
same,PSA mRNA levels (% baseline value) of cells without AR agonist treatment,[2]; ASO 0.20 μM,83 % baseline value
same,PSA mRNA levels (% baseline value) of cells without AR agonist treatment,[2]; ASO 1.0 μM,75 % baseline value
same,PSA mRNA levels (% baseline value) of cells without AR agonist treatment,[2]; ASO 5.0 μM,71 % baseline value
same,Percent inhibition of AR mRNA,AR mRNA [3]; 0.02 μM,0%
same,Percent inhibition of AR mRNA,AR mRNA [3]; 0.1 μM,0%
same,Percent inhibition of AR mRNA,AR mRNA [3]; 0.5 μM,13%
same,Percent inhibition of AR mRNA,AR mRNA [3]; 10 μM,57%
same,TMPRSS2 mRNA levels (% baseline value) after treatment with DHT,TMPRSS2 mRNA; ASO 0.04 μM,112 % baseline value
same,TMPRSS2 mRNA levels (% baseline value) after treatment with DHT,TMPRSS2 mRNA; ASO 0.20 μM,108 % baseline value
same,TMPRSS2 mRNA levels (% baseline value) after treatment with DHT,TMPRSS2 mRNA; ASO 1.0 μM,93 % baseline value
same,TMPRSS2 mRNA levels (% baseline value) after treatment with DHT,TMPRSS2 mRNA; ASO 5.0 μM,71 % baseline value
same,TMPRSS2 mRNA levels (% baseline value) after treatment with R1881,TMPRSS2 mRNA; ASO 0.04 μM,132 % baseline value
same,TMPRSS2 mRNA levels (% baseline value) after treatment with R1881,TMPRSS2 mRNA; ASO 0.20 μM,117 % baseline value
same,TMPRSS2 mRNA levels (% baseline value) after treatment with R1881,TMPRSS2 mRNA; ASO 1.0 μM,88 % baseline value
same,TMPRSS2 mRNA levels (% baseline value) after treatment with R1881,TMPRSS2 mRNA; ASO 5.0 μM,76 % baseline value
same,TMPRSS2 mRNA levels (% baseline value) of cells without AR agonist treatment,TMPRSS2 mRNA; ASO 0.04 μM,92 % baseline value
same,TMPRSS2 mRNA levels (% baseline value) of cells without AR agonist treatment,TMPRSS2 mRNA; ASO 0.20 μM,67 % baseline value
same,TMPRSS2 mRNA levels (% baseline value) of cells without AR agonist treatment,TMPRSS2 mRNA; ASO 1.0 μM,52 % baseline value
same,TMPRSS2 mRNA levels (% baseline value) of cells without AR agonist treatment,TMPRSS2 mRNA; ASO 5.0 μM,45 % baseline value
same,AR mRNA levels (% baseline value) after treatment with DHT,AR mRNA [4]; ASO 0.04 μM,89 % baseline value
same,AR mRNA levels (% baseline value) after treatment with DHT,AR mRNA [4]; ASO 0.20 μM,55 % baseline value
same,AR mRNA levels (% baseline value) after treatment with DHT,AR mRNA [4]; ASO 1.0 μM,25 % baseline value
same,AR mRNA levels (% baseline value) after treatment with DHT,AR mRNA [4]; ASO 5.0 μM,20 % baseline value
same,AR mRNA levels (% baseline value) after treatment with R1881,AR mRNA [4]; ASO 0.04 μM,87 % baseline value
same,AR mRNA levels (% baseline value) after treatment with R1881,AR mRNA [4]; ASO 0.20 μM,65 % baseline value
same,AR mRNA levels (% baseline value) after treatment with R1881,AR mRNA [4]; ASO 1.0 μM,30 % baseline value
same,AR mRNA levels (% baseline value) after treatment with R1881,AR mRNA [4]; ASO 5.0 μM,26 % baseline value
same,AR mRNA levels (% baseline value) of cells without AR agonist treatment,AR mRNA [4]; ASO 0.04 μM,107 % baseline value
same,AR mRNA levels (% baseline value) of cells without AR agonist treatment,AR mRNA [4]; ASO 0.20 μM,74 % baseline value
same,AR mRNA levels (% baseline value) of cells without AR agonist treatment,AR mRNA [4]; ASO 1.0 μM,29 % baseline value
same,AR mRNA levels (% baseline value) of cells without AR agonist treatment,AR mRNA [4]; ASO 5.0 μM,17 % baseline value
same,percent inhibition of AR,"AR mRNA [5]; 31.25 nM, ~16 h, Table 8",16%
same,percent inhibition of AR,"AR mRNA [5]; 62.5 nM, ~16 h, Table 8",48%
same,percent inhibition of AR,"AR mRNA [5]; 125.0 nM, ~16 h, Table 8",65%
same,percent inhibition of AR,"AR mRNA [5]; 500.0 nM, ~16 h, Table 8",89%
same,percent inhibition of AR,"AR mRNA [5]; 1000.0 nM, ~16 h, Table 8",97%
same,IC50,"AR mRNA [5]; ~16 h, Table 8",90 nM
same,"Percent Inhibition of AR mRNA relative to the PBS control, Heart",AR mRNA [6],32%
same,"Percent Inhibition of AR mRNA relative to the PBS control, Kidney",AR mRNA [6],19%
same,"Percent Inhibition of AR mRNA relative to the PBS control, Liver",AR mRNA [6],65%
same,"Percent Inhibition of AR mRNA relative to the PBS control, Prostate",AR mRNA [6],27%
same,"Percent Inhibition of AR mRNA relative to the PBS control, Skeletal Muscle",AR mRNA [6],30%
584149 (kG*kT*k[5mC]*dA*dA*dT*dA*dT*d[5mC]*dA*dA*dA*dG*k[5mC]*kA*k[5mC]) [compound 584149],% inhibition,"AR mRNA [1]; Table 24, 1,000 nM oligonucleotide, electroporation, approximately 24 hours, relative to untreated control",85%
same,Percent inhibition of AR mRNA,AR mRNA [3]; 0.02 μM,0%
same,Percent inhibition of AR mRNA,AR mRNA [3]; 0.1 μM,0%
same,Percent inhibition of AR mRNA,AR mRNA [3]; 0.5 μM,0%
same,Percent inhibition of AR mRNA,AR mRNA [3]; 10 μM,39%
same,"percent inhibition of AR, 46.9 nM","AR mRNA [5]; Table 35, 46.9 nM, electroporation, approximately 16 hours",11%
same,"percent inhibition of AR, 187.5 nM","AR mRNA [5]; Table 35, 187.5 nM, electroporation, approximately 16 hours",37%
same,"percent inhibition of AR, 750.0 nM","AR mRNA [5]; Table 35, 750.0 nM, electroporation, approximately 16 hours",68%
same,"percent inhibition of AR, 3000.0 nM","AR mRNA [5]; Table 35, 3000.0 nM, electroporation, approximately 16 hours",89%
same,IC50,"AR mRNA [5]; Table 35, electroporation, approximately 16 hours",310 nM
same,"Percent Inhibition of AR mRNA relative to the PBS control, Heart",AR mRNA [6],33%
same,"Percent Inhibition of AR mRNA relative to the PBS control, Kidney",AR mRNA [6],77%
same,"Percent Inhibition of AR mRNA relative to the PBS control, Liver",AR mRNA [6],93%
same,"Percent Inhibition of AR mRNA relative to the PBS control, Prostate",AR mRNA [6],45%
same,"Percent Inhibition of AR mRNA relative to the PBS control, Skeletal Muscle",AR mRNA [6],63%
